What was measured:
[1] = test system: CHO-K1 cells; assay: Rituximab production by transduced CHO-K1 cells after addition of reagent (purified antibody amount, Western blotting of medium); format: cell-based, Chinese hamster; settings: for production of the heavy and light chains of rituximab over time: medium at 24, 48, 72 hours
Description: Antibody Production: CHO-K1 cells were inoculated into a 12-well plate at 1×10^5 cells/well and then cultured. The next day, the culture medium having lentivirus-containing cells and a fresh culture medium were mixed at a ratio of 1:1, and treatment with this mixture was performed. Culture was performed for 24 hours. The culture medium was replaced with a new medium, and then treatment with puromycin and blasticidin at 10 μg/ml each was performed for selection. When 72 hours elapsed, the remaining cells were proliferated to obtain sufficient cells. For the cells thus obtained, the culture medium was replaced with a serum-free medium (EX-CELL CD CHO Serum-Free Medium for CHO Cells, Chemically Defined, Sigma, 14360C), and then treatment with Thiamet-G (Sigma Cat #SML0244) reagent at a concentration of 30 μM was performed. The cells were cultured in a CO2 incubator at 30° C. for 2 weeks. Then, the culture medium was collected and centrifuged at 1000 rcf for 3 minutes at 4° C. Only the supernatant was transferred separately into a clean tube, and the cells mixed with the supernatant were removed. The resultant was stored at 4° C.
Antibody Purification: the antibody-containing culture medium was treated with protein A agarose beads (Pierce Protein A Agarose, Therm Fisher Scientific, QE218104), and the reaction was allowed to proceed at 4° C. for 4 hours. The supernatant was removed by centrifugation, and washing with a washing buffer (0.1 M NaPO4, 0.15 M NaCl, pH 7.4) was performed five times. For the beads from which the supernatant was removed, elution was again performed 5 times with an elution buffer (0.2 M glycine, pH 3) in the same bead volume. […] Then, the total protein was quantified by the Bradford method.
To identify changes in protein amount of heavy and light chains of antibody caused by treatment with Thiamet-G, the following experiment was performed to check changes in antibody production over time after addition of Thiamet-G. The cell culture medium was collected when 24 hours, 48 hours, and 72 hours elapsed after addition of Thiamet-G at a concentration of 30 μM. […] The ECL solution was used to sensitize an x-ray film (FIG. 2), and production of the heavy and light chains at each time point was analyzed (FIG. 3).
During the antibody production process, the reagent OSMI-1 (Sigma #SML1621), which corresponds to an OGT inhibitor, at a concentration of 30 μM was added in place of Thiamet-G. Then, in the same manner as described above, the cell culture medium was collected when 24 hours, 48 hours, and 72 hours elapsed, and the production of the antibody and its heavy chain was analyzed through Western blotting (FIGS. 4-5). […]

[2] = test system: CHO cell line expressing nivolumab; assay: Antibody production after Thiamet-G, cell line expressing nivolumab; format: cell-based, Chinese hamster; settings: 50 μM, 30° C.
Description: (§1) The next day, treatment with Thiamet-G at 50 μM in 3 ml of CHO medium was performed, and culture was performed at 30° C. for 2 weeks. Then, the medium was harvested. The same volume of medium was subjected to electrophoresis so that proteins were separated by size, and then the proteins were transferred to a PVDF membrane. Portions other than the proteins electrically transferred to the membrane were blocked with TBS-T containing 5% non-fat milk and 0.1% Tween 20 at room temperature for 1 hour. […] The ECL solution was used to sensitize an x-ray film (FIG. 19), and changes in production depending on treatment with Thiamet-G were measured for each antibody (FIG. 20).
as §1, with “7 days.” for “2 weeks.”, “(FIGS. 22-23).” for “(FIG. 19), and changes in production depending on treatment with Thiamet-G were measured for each antibody (FIG. 20).”

[3] = test system: CHO cell line expressing pembrolizumab; assay: Antibody production after Thiamet-G, cell line expressing pembrolizumab; format: cell-based, Chinese hamster; settings: 50 μM, 30° C.
Description: as §1
as §1, with “7 days.” for “2 weeks.”, “(FIGS. 22-23).” for “(FIG. 19), and changes in production depending on treatment with Thiamet-G were measured for each antibody (FIG. 20).”

[4] = test system: O-linked N-acetylglucosamine (O-GlcNAc) in rituximab; assay: Degree of binding of O-GlcNAc in rituximab (RL2 Western blotting, metabolic labeling); format: cell-based
Description: Based on the total protein amount, the isolated rituximab was subjected to electrophoresis on acrylamide gel so that proteins were separated by size. Then, the proteins were transferred to a nitrocellulose membrane. Portions other than the proteins electrically transferred to the nitrocellulose membrane were blocked with TBS-T containing 5% non-fat milk and 0.1% Tween 20 at room temperature for 1 hour. Incubation with O-linked N-acetylglucosamine (O-GlcNAc)-specific antibody (RL2-HRP) was performed at room temperature for 1 hour, and then washing with TBS-T was performed three times for 10 minutes each. The ECL solution was used to sensitize an x-ray film (FIG. 6A).
The ECL solution was used to sensitize an x-ray film (FIG. 6B).
The cell line was cultured for 72 hours in a serum-free RPMI medium treated with Thiamet-G (TMG) at 50 μM, and then harvested. Then, a cell lysate was prepared. […] Then, Coomassie blue staining was performed. The results are illustrated in FIGS. 7A-7B. Here, however, as a control, Mabthera (Mab) (Roche) was used.
To further identify differences in degree of binding of O-GlcNAc in antibody, a comparison of O-GlcNAc binding amount using metabolic labeling wax performed. […] The cell line was treated with Thiamet-G at 50 μM and Ac4GlcNAz (azido sugar) at 50 μM and cultured for 4 days. […] O-GlcNAc in the rituximab was subjected to metabolic labeling.

[5] = test system: O-linked N-acetylgalactosamine (O-GalNAc) in rituximab; assay: Degree of binding of O-GalNAc in rituximab (Jacalin lectin blotting, LC-MS/MS); format: cell-based
Description: The nitrocellulose membrane was blocked with PBS-T (Tween 0.5%) for 1 hour. Then, an O-GalNAc-binding lectin (biotinylated-Jacalin) was added thereto, and incubation was performed at room temperature for 1 hour. Washing with PBS-T was performed three times for 10 minutes each, and then incubation with streptavidin-HRP was performed at room temperature for 30 minutes. Washing with PBS-T was performed three times for 10 minutes each, and then the ECL solution was used to sensitize an x-ray film. […] Then, washing with TBS-T was performed three times for 10 minutes each. The ECL solution was used to sensitize an x-ray film (FIGS. 17A-17B).

[6] = test system: CHO cell line expressing rituximab; assay: Antibody production after Thiamet-G, cell line expressing rituximab; format: cell-based, Chinese hamster; settings: 50 μM, 30° C.
Description: as §1
as §1, with “7 days.” for “2 weeks.”, “(FIGS. 22-23).” for “(FIG. 19), and changes in production depending on treatment with Thiamet-G were measured for each antibody (FIG. 20).”

[7] = test system: Ramos cells; assay: Complement-dependent cytotoxicity with rabbit complement; format: cell-based; settings: 0.1-10 ug/ml, rabbit complement 1:4, 2 hours; compared to the rituximab obtained without any treatment
Description: Complement-Dependent Cytotoxicity (complementary dependent cell death): Ramos cells were treated with 5 uM of calcein-AM in a serum-free RPMI, and then incubated at 37° C. for 30 minutes. The stained Ramos cells were dispensed in an amount of 1×10^5 cells/well.

[8] = test system: Ramos cells; assay: Binding affinity of rituximab to Ramos cells by flow cytometry; settings: 0.1-10 μg/ml, 4° C. 30 minutes, FACS; compared to the rituximab obtained without any treatment
Description: Then, incubation was performed at 4° C. for 30 minutes. Washing with PBS was performed once, and then treatment with anti-human Ig Fc-specific FITC-conjugated secondary antibody (109-095-008, 1:200 dilution; Jackson Laboratories), which was diluted […] with 50 μl PBS, was performed. Incubation was performed at 4° C. for 30 minutes. […] Analysis was performed with the FlowJo software (FIG. 14).

Row | binding of O-GalNAc to light chain residues of rituximab ([5]; LC-MS/MS, untreated rituximab has O-GalNAc on 7 light chain residues) | O-GalNAc bound to rituximab ([5]; biotinylated-Jacalin lectin blotting, same amount of rituximab) | Compound | production of rituximab depending on treatment concentration ([1]; 0, 30 or 50 μM for 72 hours, Western blotting) | production of the purified rituximab antibody, increase versus no treatment ([1]; 30 μM, 30° C., 2 weeks, FIG. 1) | production of the heavy and light chains of rituximab over time ([1]; 30 μM, Western blotting) | production of the light chain of nivolumab ([2]; 2 weeks) | production of nivolumab ([2]; 7 days) | production of the light chain of pembrolizumab ([3]; 2 weeks) | production of pembrolizumab ([3]; 7 days) | O-GlcNAc in rituximab, metabolic labeling ([4]; 50 μM with Ac4GlcNAz 50 μM, 4 days, streptavidin-HRP) | O-GlcNAc in rituximab ([4]; 50 μM, 2 weeks at 30° C., RL2-HRP, reducing and non-reducing conditions) | degree of binding of O-GlcNAc in rituximab ([4]; rituximab of Example 1, RL2-HRP Western blotting, same amount of rituximab) | production of the light chain of rituximab ([6]; 2 weeks) | production of rituximab ([6]; 7 days) | complement-dependent cytotoxicity [7] | binding affinity [8]
1 | decreased in 5 out of the 7 residues | decreased | CCN=C1N[C@@H]2[C@@H](O)[C@H](O)[C@@H](CO)O[C@@H]2S1 [Thiamet-G] | increased proportionally | about 2 times | remarkably increased over time | increased remarkably by two or more times | increased remarkably | increased remarkably by two or more times | increased remarkably | increased | increased | increased | increased remarkably by two or more times | increased remarkably |  | 
2 |  |  | rituximab, which underwent O-linked glycosylation by treatment with Thiamet-G: rituximab (SEQ ID NO: 5 and 6) produced in CHO-K1 cells with Thiamet-G, O-GlcNAc bound to light chain serines 7, 12, 14, 181 |  |  |  |  |  |  |  |  |  |  |  |  | no difference | no difference
3 |  |  | COc1ccccc1[C@@H](NS(=O)(=O)c1ccc2[nH]c(=O)ccc2c1)C(=O)N(Cc1ccco1)Cc1cccs1 [OSMI-1] |  |  | extent of increase in production decreased as compared with the untreated negative control |  |  |  |  |  |  |  |  |  |  | 

From US12590164B2, “Productivity-enhanced antibody and method for producing same” (Yonsei University BioHealth Technology Holdings, Inc., priority 2018, dated 2026)
